{
  "source": "paper PMC10528299",
  "about": "“Targeting FAK/PYK2 with SJP1602 for Anti-Tumor Activity in Triple-Negative Breast Cancer” (Current Issues in Molecular Biology, 2023)",
  "assay_in_all_cases": "Eurofins kinase profiling",
  "format_in_all_cases": "biochemical",
  "key": {"Aurora-A(h)": {"molecular_target": "T1, Aurora-A(h) (Homo sapiens, UniProt O14965)", "T1 construct": "purchased Eurofins KinaseProfiler", "T1 sequence (O14965 1-403)": "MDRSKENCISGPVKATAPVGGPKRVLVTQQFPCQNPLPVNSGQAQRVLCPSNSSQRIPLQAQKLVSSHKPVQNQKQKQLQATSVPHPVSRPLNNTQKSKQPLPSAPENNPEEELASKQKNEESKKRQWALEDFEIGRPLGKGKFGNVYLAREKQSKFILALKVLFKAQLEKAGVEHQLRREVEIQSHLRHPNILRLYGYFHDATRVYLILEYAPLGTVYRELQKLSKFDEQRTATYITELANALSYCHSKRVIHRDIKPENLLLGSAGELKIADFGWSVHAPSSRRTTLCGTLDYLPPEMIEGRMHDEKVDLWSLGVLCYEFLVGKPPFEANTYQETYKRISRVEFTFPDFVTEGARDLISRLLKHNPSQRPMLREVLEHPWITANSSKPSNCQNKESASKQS", "conditions": "read-out: residual kinase activity Aurora-A(h)", "how_it_was_run": "(§1)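 Protein kinases were run in the KinaseProfiler radiometric format with the test compound at 1 µM, and activity was measured by incorporation of radiolabeled phosphate. The assays followed the provider's standard protocols as part of a 110-kinase panel.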"}, "Flt4(h)": {"molecular_target": "T2, Flt4(h) (Homo sapiens, UniProt P35916)", "T2 construct": "purchased Eurofins KinaseProfiler", "conditions": "read-out: residual kinase activity Flt4(h)", "how_it_was_run": "as §1"}, "Hck(h)": {"molecular_target": "T3, Hck(h) (Homo sapiens, UniProt P08631)", "T3 construct": "purchased Eurofins KinaseProfiler", "conditions": "read-out: residual kinase activity Hck(h)", "how_it_was_run": "as §1"}, "PKCθ(h)": {"molecular_target": "T4, PKCθ(h) (Homo sapiens, UniProt Q04759)", "T4 construct": "purchased Eurofins KinaseProfiler", "conditions": "read-out: residual kinase activity PKCθ(h)", "how_it_was_run": "as §1"}, "EGFR(T790M,L858R)(h)": {"molecular_target": "T5, EGFR(T790M,L858R)(h) (Homo sapiens, UniProt P00533, L858R/T790M)", "T5 construct": "purchased Eurofins KinaseProfiler", "T5 sequence (P00533 25-1210 T790M/L858R)": "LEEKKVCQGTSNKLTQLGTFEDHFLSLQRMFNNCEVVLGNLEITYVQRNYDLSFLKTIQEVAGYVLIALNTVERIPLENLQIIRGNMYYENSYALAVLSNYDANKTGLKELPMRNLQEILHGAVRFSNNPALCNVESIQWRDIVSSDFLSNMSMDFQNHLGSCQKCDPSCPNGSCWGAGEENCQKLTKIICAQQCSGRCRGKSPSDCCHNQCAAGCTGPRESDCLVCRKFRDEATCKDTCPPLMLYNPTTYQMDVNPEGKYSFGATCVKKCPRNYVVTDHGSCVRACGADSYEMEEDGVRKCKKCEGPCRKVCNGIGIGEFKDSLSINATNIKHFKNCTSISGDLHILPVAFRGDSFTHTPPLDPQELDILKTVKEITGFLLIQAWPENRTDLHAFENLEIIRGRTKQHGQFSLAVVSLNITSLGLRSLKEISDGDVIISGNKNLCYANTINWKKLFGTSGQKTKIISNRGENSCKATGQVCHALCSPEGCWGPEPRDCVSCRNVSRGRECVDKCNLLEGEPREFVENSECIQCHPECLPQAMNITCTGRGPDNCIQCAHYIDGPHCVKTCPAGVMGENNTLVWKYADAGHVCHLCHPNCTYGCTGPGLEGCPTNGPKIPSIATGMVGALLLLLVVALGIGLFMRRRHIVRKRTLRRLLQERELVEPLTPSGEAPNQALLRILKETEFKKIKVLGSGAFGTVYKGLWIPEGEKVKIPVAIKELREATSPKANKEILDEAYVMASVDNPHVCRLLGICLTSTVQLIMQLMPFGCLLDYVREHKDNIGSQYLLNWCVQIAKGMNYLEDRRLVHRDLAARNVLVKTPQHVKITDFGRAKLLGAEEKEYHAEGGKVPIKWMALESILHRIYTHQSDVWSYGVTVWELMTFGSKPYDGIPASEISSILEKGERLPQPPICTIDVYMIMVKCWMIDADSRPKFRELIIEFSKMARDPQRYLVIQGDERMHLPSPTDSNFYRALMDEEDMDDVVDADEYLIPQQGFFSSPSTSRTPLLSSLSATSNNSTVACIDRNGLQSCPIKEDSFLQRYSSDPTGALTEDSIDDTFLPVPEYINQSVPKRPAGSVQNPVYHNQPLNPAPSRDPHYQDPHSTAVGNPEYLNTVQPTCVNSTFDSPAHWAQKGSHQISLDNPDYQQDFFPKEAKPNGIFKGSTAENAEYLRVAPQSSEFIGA", "conditions": "read-out: residual kinase activity EGFR(T790M,L858R)(h)", "how_it_was_run": "as §1"}, "Fer(h)": {"molecular_target": "T6, Fer(h) (Homo sapiens, UniProt P16591)", "T6 construct": "purchased Eurofins KinaseProfiler", "conditions": "read-out: residual kinase activity Fer(h)", "how_it_was_run": "as §1"}, "Flt1(h)": {"molecular_target": "T7, Flt1(h) (Homo sapiens, UniProt P17948)", "T7 construct": "purchased Eurofins KinaseProfiler", "conditions": "read-out: residual kinase activity Flt1(h)", "how_it_was_run": "as §1"}, "[1]": {"molecular_target": "T8, PI3 Kinase (p110a(E545K)/p85a)(h) (Homo sapiens, UniProt P42336, E545K)", "T8 construct": "purchased Eurofins KinaseProfiler", "conditions": "read-out: residual kinase activity PI3 Kinase (p110a(E545K)/p85a)(h)", "how_it_was_run": "as §1"}, "Fms(h)": {"molecular_target": "T9, Fms(h) (Homo sapiens, UniProt P07333)", "T9 construct": "purchased Eurofins KinaseProfiler", "T9 sequence (P07333 20-972)": "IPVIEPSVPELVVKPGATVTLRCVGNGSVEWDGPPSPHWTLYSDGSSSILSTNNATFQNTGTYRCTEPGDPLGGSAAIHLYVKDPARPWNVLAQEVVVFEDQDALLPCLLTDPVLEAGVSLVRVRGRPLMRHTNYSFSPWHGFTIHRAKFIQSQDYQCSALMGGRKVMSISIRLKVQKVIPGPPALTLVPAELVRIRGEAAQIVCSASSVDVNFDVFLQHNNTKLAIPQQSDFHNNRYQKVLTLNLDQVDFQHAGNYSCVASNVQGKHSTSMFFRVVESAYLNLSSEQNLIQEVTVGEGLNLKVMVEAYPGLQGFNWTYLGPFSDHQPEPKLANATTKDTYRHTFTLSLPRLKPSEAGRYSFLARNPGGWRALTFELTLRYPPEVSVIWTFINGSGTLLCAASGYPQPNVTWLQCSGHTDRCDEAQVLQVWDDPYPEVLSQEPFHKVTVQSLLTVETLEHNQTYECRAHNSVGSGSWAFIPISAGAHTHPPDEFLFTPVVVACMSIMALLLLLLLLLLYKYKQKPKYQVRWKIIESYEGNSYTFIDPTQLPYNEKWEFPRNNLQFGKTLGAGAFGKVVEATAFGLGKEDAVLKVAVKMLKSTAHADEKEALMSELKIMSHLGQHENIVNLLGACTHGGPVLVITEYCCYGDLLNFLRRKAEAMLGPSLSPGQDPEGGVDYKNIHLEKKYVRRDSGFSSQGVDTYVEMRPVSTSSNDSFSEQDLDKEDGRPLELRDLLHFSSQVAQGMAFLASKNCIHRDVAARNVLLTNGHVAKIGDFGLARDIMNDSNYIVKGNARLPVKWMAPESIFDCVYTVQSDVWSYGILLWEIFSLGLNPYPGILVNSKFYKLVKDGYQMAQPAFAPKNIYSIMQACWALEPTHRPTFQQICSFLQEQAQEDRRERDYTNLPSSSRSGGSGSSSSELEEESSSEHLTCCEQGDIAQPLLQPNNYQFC", "conditions": "read-out: residual kinase activity Fms(h)", "how_it_was_run": "as §1"}, "MAPK2(h)": {"molecular_target": "T10, MAPK2(h) (Homo sapiens, UniProt P28482)", "T10 construct": "purchased Eurofins KinaseProfiler", "conditions": "read-out: residual kinase activity MAPK2(h)", "how_it_was_run": "as §1"}, "DNA-PK(h)": {"molecular_target": "T11, DNA-PK(h) (Homo sapiens, UniProt P78527)", "T11 construct": "purchased Eurofins KinaseProfiler", "conditions": "read-out: residual kinase activity DNA-PK(h)", "how_it_was_run": "as §1"}, "ErbB4(h)": {"molecular_target": "T12, ErbB4(h) (Homo sapiens, UniProt Q15303)", "T12 construct": "purchased Eurofins KinaseProfiler", "T12 sequence (Q15303 26-1308)": "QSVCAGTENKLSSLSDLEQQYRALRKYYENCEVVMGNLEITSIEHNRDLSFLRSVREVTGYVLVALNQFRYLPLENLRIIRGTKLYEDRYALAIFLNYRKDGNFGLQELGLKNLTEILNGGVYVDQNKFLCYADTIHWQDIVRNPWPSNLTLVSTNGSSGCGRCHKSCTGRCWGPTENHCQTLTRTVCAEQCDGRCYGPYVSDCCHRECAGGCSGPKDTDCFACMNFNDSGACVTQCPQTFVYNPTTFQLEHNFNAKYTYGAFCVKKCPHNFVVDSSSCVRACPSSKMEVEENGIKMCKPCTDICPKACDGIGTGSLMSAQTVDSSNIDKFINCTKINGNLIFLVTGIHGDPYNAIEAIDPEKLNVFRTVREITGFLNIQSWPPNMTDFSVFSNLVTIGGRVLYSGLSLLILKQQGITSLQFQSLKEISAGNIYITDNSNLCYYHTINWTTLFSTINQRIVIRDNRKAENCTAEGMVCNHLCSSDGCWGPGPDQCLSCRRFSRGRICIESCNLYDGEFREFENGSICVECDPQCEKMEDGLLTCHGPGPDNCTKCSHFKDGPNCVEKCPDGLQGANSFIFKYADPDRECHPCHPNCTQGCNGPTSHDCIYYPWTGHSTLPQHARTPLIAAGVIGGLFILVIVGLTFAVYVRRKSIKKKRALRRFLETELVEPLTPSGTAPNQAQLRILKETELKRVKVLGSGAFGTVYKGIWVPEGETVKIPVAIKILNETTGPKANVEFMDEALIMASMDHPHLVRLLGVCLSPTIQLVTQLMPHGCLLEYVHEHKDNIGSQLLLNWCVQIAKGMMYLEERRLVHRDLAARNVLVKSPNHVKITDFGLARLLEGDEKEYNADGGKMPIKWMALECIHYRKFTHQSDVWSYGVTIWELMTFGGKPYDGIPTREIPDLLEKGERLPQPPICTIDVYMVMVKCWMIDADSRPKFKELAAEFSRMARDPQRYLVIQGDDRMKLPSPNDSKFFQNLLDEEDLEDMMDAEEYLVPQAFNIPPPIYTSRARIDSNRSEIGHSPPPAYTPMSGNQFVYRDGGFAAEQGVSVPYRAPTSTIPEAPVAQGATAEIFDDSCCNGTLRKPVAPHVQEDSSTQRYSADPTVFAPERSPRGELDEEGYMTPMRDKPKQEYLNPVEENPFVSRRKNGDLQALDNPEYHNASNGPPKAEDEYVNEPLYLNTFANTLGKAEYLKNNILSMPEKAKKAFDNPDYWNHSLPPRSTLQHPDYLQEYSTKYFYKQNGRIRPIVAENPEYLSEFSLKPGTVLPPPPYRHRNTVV", "conditions": "read-out: residual kinase activity ErbB4(h)", "how_it_was_run": "as §1"}, "CK1γ1(h)": {"molecular_target": "T13, CK1γ1(h) (Homo sapiens, UniProt Q9HCP0)", "T13 construct": "purchased Eurofins KinaseProfiler", "conditions": "read-out: residual kinase activity CK1γ1(h)", "how_it_was_run": "as §1"}, "cKit(V560G)(h)": {"molecular_target": "T14, cKit(V560G)(h) (Homo sapiens, UniProt P10721, V560G)", "T14 construct": "purchased Eurofins KinaseProfiler", "T14 sequence (P10721 26-976 V560G)": "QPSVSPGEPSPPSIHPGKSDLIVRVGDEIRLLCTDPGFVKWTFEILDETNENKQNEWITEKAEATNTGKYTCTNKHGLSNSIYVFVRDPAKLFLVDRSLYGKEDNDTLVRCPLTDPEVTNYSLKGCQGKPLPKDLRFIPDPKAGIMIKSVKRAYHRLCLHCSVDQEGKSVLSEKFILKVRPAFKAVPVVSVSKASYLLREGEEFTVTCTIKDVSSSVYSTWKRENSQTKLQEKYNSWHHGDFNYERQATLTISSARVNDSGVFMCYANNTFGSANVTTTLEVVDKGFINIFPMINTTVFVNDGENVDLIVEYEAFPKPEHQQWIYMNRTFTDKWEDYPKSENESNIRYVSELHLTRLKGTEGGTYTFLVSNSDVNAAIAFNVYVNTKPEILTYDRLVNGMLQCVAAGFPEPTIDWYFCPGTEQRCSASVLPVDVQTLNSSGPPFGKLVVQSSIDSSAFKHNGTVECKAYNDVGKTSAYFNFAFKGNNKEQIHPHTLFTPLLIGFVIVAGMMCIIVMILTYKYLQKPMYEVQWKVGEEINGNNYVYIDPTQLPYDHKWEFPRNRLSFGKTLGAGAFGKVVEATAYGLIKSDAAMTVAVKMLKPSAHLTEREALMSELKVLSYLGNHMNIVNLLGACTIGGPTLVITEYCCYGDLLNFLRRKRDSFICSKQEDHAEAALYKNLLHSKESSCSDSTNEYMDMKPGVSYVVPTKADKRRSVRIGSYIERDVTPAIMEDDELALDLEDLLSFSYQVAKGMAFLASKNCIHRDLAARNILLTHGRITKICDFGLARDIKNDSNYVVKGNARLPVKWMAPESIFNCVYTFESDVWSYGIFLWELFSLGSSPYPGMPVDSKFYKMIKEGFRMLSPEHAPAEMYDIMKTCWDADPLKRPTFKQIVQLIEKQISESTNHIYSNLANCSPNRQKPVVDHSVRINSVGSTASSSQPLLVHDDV", "conditions": "read-out: residual kinase activity cKit(V560G)(h)", "how_it_was_run": "as §1"}, "ROCK-I(h)": {"molecular_target": "T15, ROCK-I(h) (Homo sapiens, UniProt Q13464)", "T15 construct": "purchased Eurofins KinaseProfiler", "conditions": "read-out: residual kinase activity ROCK-I(h)", "how_it_was_run": "as §1"}, "EphB4(h)": {"molecular_target": "T16, EphB4(h) (Homo sapiens, UniProt P54760)", "T16 construct": "purchased Eurofins KinaseProfiler", "T16 sequence (P54760 16-987)": "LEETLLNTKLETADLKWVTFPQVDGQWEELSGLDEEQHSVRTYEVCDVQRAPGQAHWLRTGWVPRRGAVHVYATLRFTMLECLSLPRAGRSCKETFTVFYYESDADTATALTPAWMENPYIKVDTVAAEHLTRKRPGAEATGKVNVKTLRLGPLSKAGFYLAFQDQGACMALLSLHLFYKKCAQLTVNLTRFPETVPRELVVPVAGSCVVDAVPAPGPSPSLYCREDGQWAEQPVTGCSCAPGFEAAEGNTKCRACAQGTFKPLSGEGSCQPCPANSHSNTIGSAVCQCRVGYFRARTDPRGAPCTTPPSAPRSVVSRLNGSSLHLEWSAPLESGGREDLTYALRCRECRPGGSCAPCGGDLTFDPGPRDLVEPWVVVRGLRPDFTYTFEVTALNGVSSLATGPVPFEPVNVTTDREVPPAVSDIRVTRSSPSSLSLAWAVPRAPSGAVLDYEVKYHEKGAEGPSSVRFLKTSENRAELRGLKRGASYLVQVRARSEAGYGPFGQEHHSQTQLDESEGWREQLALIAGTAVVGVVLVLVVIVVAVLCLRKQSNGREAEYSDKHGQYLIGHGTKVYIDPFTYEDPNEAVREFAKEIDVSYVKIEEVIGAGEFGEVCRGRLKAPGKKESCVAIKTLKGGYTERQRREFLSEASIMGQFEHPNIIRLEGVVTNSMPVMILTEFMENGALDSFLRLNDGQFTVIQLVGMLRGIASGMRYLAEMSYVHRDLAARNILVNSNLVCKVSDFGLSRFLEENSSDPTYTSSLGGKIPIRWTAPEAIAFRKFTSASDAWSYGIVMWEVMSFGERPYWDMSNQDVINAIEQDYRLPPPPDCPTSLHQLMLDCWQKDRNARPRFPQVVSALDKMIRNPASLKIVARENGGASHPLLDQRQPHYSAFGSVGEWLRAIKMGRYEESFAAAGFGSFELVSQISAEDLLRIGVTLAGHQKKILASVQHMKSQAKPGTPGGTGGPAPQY", "conditions": "read-out: residual kinase activity EphB4(h)", "how_it_was_run": "as §1"}},
  "data": [
    {"smiles": "CNC(=O)c1ccc(Nc2ncc(C(F)(F)F)c(NCc3nccnc3N(C)S(C)(=O)=O)n2)cc1", "note": "[VS-6063, Defactinib]", "values": [
      {"measurement": "remaining activity at 1 µM", "setting": "Aurora-A(h)", "value": 12, "unit": "%"},
      {"measurement": "remaining activity at 1 µM", "setting": "Flt4(h)", "value": -3, "unit": "%"},
      {"measurement": "remaining activity at 1 µM", "setting": "Hck(h)", "value": 99, "unit": "%"},
      {"measurement": "remaining activity at 1 µM", "setting": "PKCθ(h)", "value": 63, "unit": "%"},
      {"measurement": "remaining activity at 1 µM", "setting": "EGFR(T790M,L858R)(h)", "value": 65, "unit": "%"},
      {"measurement": "remaining activity at 1 µM", "setting": "Fer(h)", "value": 31, "unit": "%"},
      {"measurement": "remaining activity at 1 µM", "setting": "Flt1(h)", "value": 21, "unit": "%"},
      {"measurement": "remaining activity at 1 µM", "setting": "[1]", "value": 100, "unit": "%"},
      {"measurement": "remaining activity at 1 µM", "setting": "Fms(h)", "value": 67, "unit": "%"},
      {"measurement": "remaining activity at 1 µM", "setting": "MAPK2(h)", "value": 87, "unit": "%"},
      {"measurement": "remaining activity at 1 µM", "setting": "DNA-PK(h)", "value": 85, "unit": "%"},
      {"measurement": "remaining activity at 1 µM", "setting": "ErbB4(h)", "value": 104, "unit": "%"},
      {"measurement": "remaining activity at 1 µM", "setting": "CK1γ1(h)", "value": 81, "unit": "%"},
      {"measurement": "remaining activity at 1 µM", "setting": "cKit(V560G)(h)", "value": 74, "unit": "%"},
      {"measurement": "remaining activity at 1 µM", "setting": "ROCK-I(h)", "value": 103, "unit": "%"},
      {"measurement": "remaining activity at 1 µM", "setting": "EphB4(h)", "value": 67, "unit": "%"}
    ]},
    {"smiles": "CONC(=O)c1ccccc1Nc1cc(Nc2cc(C)nn2C(C)C)ncc1Cl", "note": "[GSK2256098]", "values": [
      {"measurement": "remaining activity at 1 µM", "setting": "Aurora-A(h)", "value": 43, "unit": "%"},
      {"measurement": "remaining activity at 1 µM", "setting": "Flt4(h)", "value": 67, "unit": "%"},
      {"measurement": "remaining activity at 1 µM", "setting": "Hck(h)", "value": 100, "unit": "%"},
      {"measurement": "remaining activity at 1 µM", "setting": "PKCθ(h)", "value": 96, "unit": "%"},
      {"measurement": "remaining activity at 1 µM", "setting": "EGFR(T790M,L858R)(h)", "value": 88, "unit": "%"},
      {"measurement": "remaining activity at 1 µM", "setting": "Fer(h)", "value": 105, "unit": "%"},
      {"measurement": "remaining activity at 1 µM", "setting": "Flt1(h)", "value": 94, "unit": "%"},
      {"measurement": "remaining activity at 1 µM", "setting": "[1]", "value": 93, "unit": "%"},
      {"measurement": "remaining activity at 1 µM", "setting": "Fms(h)", "value": 88, "unit": "%"},
      {"measurement": "remaining activity at 1 µM", "setting": "MAPK2(h)", "value": 94, "unit": "%"},
      {"measurement": "remaining activity at 1 µM", "setting": "DNA-PK(h)", "value": 98, "unit": "%"},
      {"measurement": "remaining activity at 1 µM", "setting": "ErbB4(h)", "value": 81, "unit": "%"},
      {"measurement": "remaining activity at 1 µM", "setting": "CK1γ1(h)", "value": 99, "unit": "%"},
      {"measurement": "remaining activity at 1 µM", "setting": "cKit(V560G)(h)", "value": 104, "unit": "%"},
      {"measurement": "remaining activity at 1 µM", "setting": "ROCK-I(h)", "value": 107, "unit": "%"},
      {"measurement": "remaining activity at 1 µM", "setting": "EphB4(h)", "value": 94, "unit": "%"}
    ]},
    {"smiles": "CNC(=O)c1cccc(C)c1Nc1nc(Nc2ccc(N3CCN(C4C5CC6CC4CC(O)(C6)C5)CC3)cc2OC)ncc1C(F)(F)F", "note": "(stereo not drawn) [SJP1602, 2-((2-((4-(4-((2s,5r)-5-hydroxyadamantan-2-yl)piperazin-1-yl)-2-methoxyphenyl)amino)-5-(trifluoromethyl)pyrimidin-4-yl)amino)-N,3-dimethylbenzamide]", "values": [
      {"measurement": "remaining activity at 1 µM", "setting": "Aurora-A(h)", "value": 48, "unit": "%"},
      {"measurement": "remaining activity at 1 µM", "setting": "Flt4(h)", "value": 104, "unit": "%"},
      {"measurement": "remaining activity at 1 µM", "setting": "Hck(h)", "value": 105, "unit": "%"},
      {"measurement": "remaining activity at 1 µM", "setting": "PKCθ(h)", "value": 93, "unit": "%"},
      {"measurement": "remaining activity at 1 µM", "setting": "EGFR(T790M,L858R)(h)", "value": 88, "unit": "%"},
      {"measurement": "remaining activity at 1 µM", "setting": "Fer(h)", "value": 68, "unit": "%"},
      {"measurement": "remaining activity at 1 µM", "setting": "Flt1(h)", "value": 106, "unit": "%"},
      {"measurement": "remaining activity at 1 µM", "setting": "[1]", "value": 98, "unit": "%"},
      {"measurement": "remaining activity at 1 µM", "setting": "Fms(h)", "value": 85, "unit": "%"},
      {"measurement": "remaining activity at 1 µM", "setting": "MAPK2(h)", "value": 95, "unit": "%"},
      {"measurement": "remaining activity at 1 µM", "setting": "DNA-PK(h)", "value": 98, "unit": "%"},
      {"measurement": "remaining activity at 1 µM", "setting": "ErbB4(h)", "value": 99, "unit": "%"},
      {"measurement": "remaining activity at 1 µM", "setting": "CK1γ1(h)", "value": 105, "unit": "%"},
      {"measurement": "remaining activity at 1 µM", "setting": "cKit(V560G)(h)", "value": 136, "unit": "%"},
      {"measurement": "remaining activity at 1 µM", "setting": "ROCK-I(h)", "value": 101, "unit": "%"},
      {"measurement": "remaining activity at 1 µM", "setting": "EphB4(h)", "value": 93, "unit": "%"}
    ]}
  ]
}
